# Measured values reported in US5654427A, “Indolocarbazole derivatives to treat a pathological condition of the prostate” (Kyowa Hakko Kogyo Co., Ltd., priority 1995, dated 1997).
# Read-outs that look alike come from different tables or passages of the source.
# Tests used:
# [1] = body weight and weight of peripheral organs in sexually immature mice; conditions: for Body Weight: Table 4, TEPBS 31.5 ± 0.8; for Heart weight / Testes weight / Lung weight / Stomach weight / Kidney weight / Liver weight: Table 5; for Heart weight: TEPBS 171 ± 8.4; for Testes weight: TEPBS 202 ± 6; for Lung weight: TEPBS 230 ± 15.9; for Stomach weight: TEPBS 294 ± 22; for Kidney weight: TEPBS 576 ± 22; for Liver weight: TEPBS 1937 ± 75
# Description: (§1) The following animal model can be used to test the efficacy of a functional derivative for treatment of a proliferative prostate condition. Sexually immature male mice of 15-20 g each (Charles River Laboratories, Raleigh, N.C.) were used in the following in vivo study. The mice were allowed at least 3 days after purchase to acclimate before being used in any experiments.
# (§2) Each test group contained 12 mice. […] At the end of the 21 day dosing period the mice were sacrificed and whole body blood, dorsal prostate, ventral prostate, coagulating glands, seminal vesicles, heart, liver, stomach, lung, kidneys and testes were collected separately and weighed.
# PC-3 = assay: growth inhibition of PC-3 prostate cancer cells (calcein fluorescence); format: cell-based; conditions: Homo sapiens, PC-3, 72 h, read-out: PC-3 IC50
# Procedure: (§3) Throughout the experiment the Tsu-Pr1 and Du-Pro1 cells were maintained in RPMI 1640 medium (GIBCO) containing 10% fetal bovine serum (Hyclone), 2 mM glutamine, 100 U/ml penicillin, and 100 μg/ml streptomycin. The PC-3 cells were maintained in Ham's F12K medium (Irvine Scientific) containing 10% fetal bovine serum (Hyclone), 2 mM glutamine, 100 U/ml penicillin, and 100 μg/ml streptomycin. All cell lines were maintained at 37° C. in a humidified atmosphere containing 5% CO2. The DU-145 cells were maintained in minimal essential medium (Gibco), containing 10% fetal bovine serum (Hyclone), 2 mM glutamine, and no antibiotics.
# (§4) Tests for growth inhibition by the candidate compounds were conducted by the following procedure. In each well of a 96-well plate (Falcon) were placed 2,500 cells in 0.1 ml of medium. The cultures were incubated overnight after which a 0.1 ml aliquot of culture medium was added to each well. […] Other control wells received medium without any K-252a derivative compounds. Incubation was continued for three days. On day three the number of cells in each well was measured using a calcein fluorescence assay (Bozyczko-Coyne et al. J. Neurosci. Meth. 50, 205-216 (1993)).
# (§5) Calcein AM (Molecular Probes, Eugene, Oreg.), an analog of the viable dye fluorescein diacetate, is taken up by cells and cleaved intracellularly to fluorescent salts that are retained by intact membranes of viable cells. This method thus provides a reliable and quantitative measurement of cell survival. Calcein AM was diluted 2× in Dulbeccos phosphate buffered saline (D-PBS) to 2× the final assay concentration (6 μM) and 100 μl was added to culture wells containing 100 μl of medium. The plates were then incubated for 1 hour at 37° C. Cells were then washed 4 times with D-PBS to remove excess calcein not taken up by cells. The plate was read using a Millipore plate reading fluorimeter (Cytofluor 2350) at emission=485 nm and excitation=538 nm. After subtraction of blank values (wells containing medium but no cells), relative fluorescent values reflect a quantitative measurement of cell survival. […]
# protein kinase G = conditions: background; cited from earlier work
# protein kinase C = conditions: background; cited from earlier work
# Du-Pro1 = assay: growth inhibition of Du-Pro1 prostate cancer cells (calcein fluorescence); format: cell-based; conditions: Homo sapiens, 72 h, read-out: Du-Pro1 IC50
# Procedure: as §3, §4
# (§6) Calcein AM (Molecular Probes, Eugene, Oreg.), an analog of the viable dye fluorescein diacetate, is taken up by cells and cleaved intracellularly to fluorescent salts that are retained by intact membranes of viable cells. This method thus provides a reliable and quantitative measurement of cell survival. Calcein AM was diluted 2× in Dulbeccos phosphate buffered saline (D-PBS) to 2× the final assay concentration (6 μM) and 100 μl was added to culture wells containing 100 μl of medium. The plates were then incubated for 1 hour at 37° C. Cells were then washed 4 times with D-PBS to remove excess calcein not taken up by cells. The plate was read using a Millipore plate reading fluorimeter (Cytofluor 2350) at emission=485 nm and excitation=538 nm. After subtraction of blank values (wells containing medium but no cells), relative fluorescent values reflect a quantitative measurement of cell survival.
# (§7) The number of cells in the wells containing functional derivatives was compared to the number of cells in the control wells. The concentration which inhibited cell growth by 50% was calculated and is referred to as the "IC50 ".
# protein kinase A = conditions: background; cited from earlier work
# DU-145 = assay: growth inhibition of DU-145 prostate cancer cells (calcein fluorescence); format: cell-based; conditions: Homo sapiens, DU-145, 72 h, read-out: DU-145 C50
# Procedure: as §3, §4, §6, §7
# prostate glands = assay: inhibition of prostate growth in sexually immature mice (weight of prostate glands); format: in vivo; conditions: for Dorsal Prostate weight: TEPBS 9.8 ± 1.6; for Coagulating Glands weight: TEPBS 25.1 ± 1.6; for Seminal Vesicles weight: TEPBS 75.0 ± 5.0
# Description: as §1, §2
# [2] = system: myosin light-chain kinase; conditions: background; cited from earlier work
# Tsu-Pr1 = assay: growth inhibition of Tsu-Pr1 prostate cancer cells (calcein fluorescence); format: cell-based; conditions: Homo sapiens, TSU-Pr1, 72 h, read-out: Tsu-Pr1 IC50
# Procedure: as §3, §4, §6, §7
# phosphorylase kinase = conditions: background; cited from earlier work
# trkA = molecular target: T1, trkA (Rattus norvegicus, UniProt P35739); assay: inhibition of NGF-stimulated trk autophosphorylation (tyrosine phosphorylation) in PC12 cells, anti-phosphotyrosine Western blot; format: cell-based; conditions: 100 nM compound, NGF 50 ng/ml; further: key: +: Inhibited phosphorylation; -: Did not inhibit phosphorylation
# T1 construct: are rat pheochromocytoma cells that bear trkA; host or cells: PC12 rat pheochromocytoma cells
# Procedure: Candidate compounds for the inhibition of prostate cell proliferation were selected according to their ability to inhibit the tyrosine kinase activity associated with the trks.
# PC12 cells (ATCC #CRL1721) are rat pheochromocytoma cells that bear trkA and differentiate into sympathetic neurons when treated with NGF. […] Cells were incubated at 37° C. in a humidified atmosphere of 10% CO2 and 90% air. […] The cells in each culture were disrupted and cell lysates were prepared by standard techniques known to those skilled in the art. Each lysate was incubated with anti-trk antibody whereby immune complexes were formed. […] The immune complexes were collected on Protein A-Sepharose beads, separated by SDS-polyacrylamide gel electrophoresis (SDS-PAGE), and transferred to polyvinylidene difluoride (PVDF) membranes (Millipore Corp., Bedford, Mass.), using techniques well known to those skilled in the art. The membranes were incubated with anti-phosphotyrosine antibody, which binds to the tyrosine phosphorylated trks, but not to the un-phosphorylated form of trks. Proteins bound to anti-phosphotyrosine antibody were visualized with enhanced chemiluminescence (ECL, Amersham), and are shown as dark "spots" in FIG. 1.
# Measurement of the autophosphorylation of trk provides a good index of trk tyrosine kinase activity, and thereby of trk stimulation.
# Inhibition was indicated by the absence of a spot migrating with the trk marker shown at the left side of the figure. Partial inhibition was indicated by a spot of reduced size.
# [3] = system: androgen independent human prostate cancer cell lines Tsu-Pr1, DuPro-1, PC-3 and DU-145; assay: growth inhibition of prostate cancer-derived cell lines, overall (calcein fluorescence); format: cell-based; conditions: Table 3
# Procedure: as §3, §4, §5
# [4] = Table 4, 1 mg/kg s.c. daily 21 days
# [5] = Table 4, 10 mg/kg s.c. daily 21 days
# T1 sequence (P35739 33-799): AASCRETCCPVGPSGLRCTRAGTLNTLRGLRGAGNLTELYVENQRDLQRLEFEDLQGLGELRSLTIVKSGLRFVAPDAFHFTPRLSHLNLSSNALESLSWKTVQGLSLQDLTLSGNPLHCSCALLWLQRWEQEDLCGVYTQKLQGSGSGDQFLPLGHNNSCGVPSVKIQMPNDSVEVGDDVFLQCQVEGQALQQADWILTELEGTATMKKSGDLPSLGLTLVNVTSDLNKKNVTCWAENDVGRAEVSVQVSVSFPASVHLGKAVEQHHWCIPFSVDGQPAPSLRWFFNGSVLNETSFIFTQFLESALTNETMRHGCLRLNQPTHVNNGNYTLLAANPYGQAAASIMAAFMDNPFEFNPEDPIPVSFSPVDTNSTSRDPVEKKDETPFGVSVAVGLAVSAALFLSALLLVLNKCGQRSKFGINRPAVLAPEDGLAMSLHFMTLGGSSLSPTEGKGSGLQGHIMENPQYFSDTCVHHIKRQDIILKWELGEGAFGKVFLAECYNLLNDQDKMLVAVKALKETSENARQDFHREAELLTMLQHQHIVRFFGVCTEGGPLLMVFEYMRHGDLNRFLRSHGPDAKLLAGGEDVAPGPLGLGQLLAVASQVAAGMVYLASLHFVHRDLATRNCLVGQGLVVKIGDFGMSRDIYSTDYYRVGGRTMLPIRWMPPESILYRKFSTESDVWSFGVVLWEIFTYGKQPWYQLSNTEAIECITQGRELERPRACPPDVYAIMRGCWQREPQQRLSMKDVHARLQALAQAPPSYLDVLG
Compound,Body Weight ([1]; 1 mg/kg s.c. daily 21 days),Body Weight ([1]; 10 mg/kg s.c. daily 21 days),Heart weight ([1]; 1 mg/kg s.c. daily 21 days),Testes weight ([1]; 1 mg/kg s.c. daily 21 days),Lung weight ([1]; 1 mg/kg s.c. daily 21 days),Stomach weight ([1]; 1 mg/kg s.c. daily 21 days),Kidney weight ([1]; 1 mg/kg s.c. daily 21 days),Liver weight ([1]; 1 mg/kg s.c. daily 21 days),Heart weight ([1]; 10 mg/kg s.c. daily 21 days),Testes weight ([1]; 10 mg/kg s.c. daily 21 days),Lung weight ([1]; 10 mg/kg s.c. daily 21 days),Stomach weight ([1]; 10 mg/kg s.c. daily 21 days),Kidney weight ([1]; 10 mg/kg s.c. daily 21 days),Liver weight ([1]; 10 mg/kg s.c. daily 21 days),"weight of the ventral prostates and seminal vesicles, in words (prostate glands; 1 mg/kg)",Dorsal Prostate weight (prostate glands; [4]),Coagulating Glands weight (prostate glands; [4]),Seminal Vesicles weight (prostate glands; [4]),Dorsal Prostate weight (prostate glands; [5]),Coagulating Glands weight (prostate glands; [5]),further results
COC(=O)C1(O)CC2OC1(C)n1c3ccccc3c3c4c(c5c6ccccc6n2c5c31)C(=O)NC4 (stereo not shown) [Compound I-1],32.2 ± 0.6 g,30.0 ± 0.6 g,164 ± 6.4 mg,216 ± 6 mg,229 ± 8.02 mg,288 ± 10 mg,598 ± 19 mg,1921 ± 81 mg,152 ± 6.58 mg,204 ± 11 mg,263 ± 14.8 mg,295 ± 30 mg,550 ± 18 mg,1765 ± 50 mg,significantly reduced the weight of the ventral prostates and seminal vesicles,6.2 ± 1.3 mg,18.2 ± 2.4 mg,61.4 ± 4.1 mg,6.7 ± 0.7 mg,18.5 ± 1.4 mg,"IC50 (PC-3): 3400 nM; inhibitor of protein kinase G (protein kinase G): inhibitor; inhibitor of protein kinase C (protein kinase C): inhibitor; IC50 (Du-Pro1): 750 nM; inhibitor of protein kinase A (protein kinase A): inhibitor; IC50 (DU-145): 1200 nM; effect of the higher dose, in words (prostate glands; 10 mg/kg versus 1 mg/kg): did not produce any greater effect; Seminal Vesicles weight (prostate glands; [5]): 66.4 ± 5.6 mg; Ventral Prostate weight (prostate glands; mouse, in vivo, sc, 1 mg/kg): 7.6 ± 0.9 mg; Ventral Prostate weight (prostate glands; mouse, in vivo, sc, 10 mg/kg): 8.6 ± 0.8 mg; inhibitor of myosin light-chain kinase [2]: inhibitor; IC50 (Tsu-Pr1): 210 nM; inhibitor of phosphorylase kinase (phosphorylase kinase): inhibitor"
CC12OC(CC1(O)C(=O)NCCO)n1c3ccccc3c3c4c(c5c6ccccc6n2c5c31)CNC4=O (stereo not shown) [Compound I-12],32.8 ± 0.4 g,29.5 ± 1.0 g,179 ± 8.78 mg,191 ± 12 mg,244 ± 15.1 mg,329 ± 28 mg,591 ± 16 mg,2120 ± 54 mg,152 ± 9.60 mg,187 ± 5 mg,253 ± 20.9 mg,270 ± 19 mg,552 ± 29 mg,1886 ± 84 mg,reduced the weight of the ventral prostates and seminal vesicles,4.7 ± 0.4 mg,18.0 ± 2.4 mg,54.3 ± 1.5 mg,8.6 ± 1.1 mg,17.6 ± 1.0 mg,"IC50 (PC-3; 3 days incubation): 690 nM; IC50 (Du-Pro1; 3 days incubation): 310 nM; IC50 (DU-145; 3 days incubation): 750 nM; weight of the dorsal prostate, in words (prostate glands; 1 mg/kg and 10 mg/kg): only reduced after treatment with 1 mg/kg; weight of the ventral prostates and seminal vesicles, in words (prostate glands; 10 mg/kg): reduced the weight of the ventral prostates and seminal vesicles; Ventral Prostate weight (prostate glands; Table 4, 1 mg/kg s.c. daily 21 days, TEPBS 11.3 ± 0.6): 6.2 ± 0.4 mg; Ventral Prostate weight (prostate glands; Table 4, 10 mg/kg s.c. daily 21 days, TEPBS 11.3 ± 0.6): 8.4 ± 0.8 mg; Seminal Vesicles weight (prostate glands; [5]): 55.3 ± 2.2 mg; trk 100 nM (inhibition of phosphorylation) (trkA): +; IC50 (Tsu-Pr1; 3 days incubation): 38 nM; potency in inhibiting prostate cell line growth, in words [3]: most potent compounds in inhibiting growth in all four cell lines"
